Measured values as given in patent publication EP4635500A1, “THERAPEUTIC AGENT FOR BACTERIAL INFECTION” (Sumitomo Pharma Co., Ltd., priority 2022, dated 2024).
≈ marks a conversion by molar mass, not a printed value. Where two headings read alike, the source gives them in different places.

Tested on: P. aeruginosa
Assay: MIC, broth microdilution, CDC/FDA Antibiotic Resistance Isolate Bank (Example 7, Tables 10, 15)
Type: cell-based
Conditions: for MIC: Pseudomonas aeruginosa, read-out: MIC
[1] = 26 metallo-carbapenemase-producing P. aeruginosa strains, β-lactamase inhibitor µg/mL in parentheses
[2] = 96 strains of P. aeruginosa, β-lactamase inhibitor µg/mL in parentheses

## NCC[C@H](O)C(=O)N[C@@H]1C[C@H](N)[C@@H](O[C@H]2O[C@H](CN)[C@@H](O)[C@H](O)[C@H]2O)[C@H](O)[C@H]1O[C@H]1O[C@H](CO)[C@@H](O)[C@H](N)[C@H]1O [Amikacin, amikacin]
[1]
  MIC against 26 metallo-carbapenemase-producing strains MIC50: >64 µg(mL)
  MIC against 26 metallo-carbapenemase-producing strains MIC90: >64 µg(mL)
[2]
  MIC against 96 strains of P. aeruginosa MIC50: 8 µg(mL)
  MIC against 96 strains of P. aeruginosa MIC90: >64 µg(mL)
P. aeruginosa KUB No. 579, AR Bank # 447
  MIC: 8 µg/mL (≈ 13.7 µM)
P. aeruginosa KUB No. 5083, AR Bank # 250
  MIC: > 64 µg/mL
P. aeruginosa KUB No. 5551, AR Bank # 54
  MIC: 4 µg/mL (≈ 6.83 µM)
P. aeruginosa KUB No. 5561, AR Bank # 64
  MIC: 1 µg/mL (≈ 1.71 µM)
P. aeruginosa KUB No. 5587, AR Bank # 90
  MIC: 32 µg/mL (≈ 54.6 µM)
P. aeruginosa KUB No. 5589, AR Bank # 92
  MIC: > 64 µg/mL
P. aeruginosa KUB No. 5591, AR Bank # 94
  MIC: 32 µg/mL (≈ 54.6 µM)
P. aeruginosa KUB No. 5592, AR Bank # 95
  MIC: 0.5 µg/mL (≈ 0.854 µM)
P. aeruginosa KUB No. 5597, AR Bank # 100
  MIC: > 64 µg/mL
P. aeruginosa KUB No. 5600, AR Bank # 103
  MIC: 32 µg/mL (≈ 54.6 µM)
P. aeruginosa KUB No. 5602, AR Bank # 105
  MIC: 8 µg/mL (≈ 13.7 µM)
P. aeruginosa KUB No. 5605, AR Bank # 108
  MIC: > 64 µg/mL
P. aeruginosa KUB No. 5607, AR Bank # 110
  MIC: > 64 µg/mL
P. aeruginosa KUB No. 5608, AR Bank # 111
  MIC: > 64 µg/mL
P. aeruginosa KUB No. 5662, AR Bank # 229
  MIC: 16 µg/mL (≈ 27.3 µM)
P. aeruginosa KUB No. 5663, AR Bank # 230
  MIC: > 64 µg/mL
P. aeruginosa KUB No. 5664, AR Bank # 231
  MIC: 8 µg/mL (≈ 13.7 µM)
P. aeruginosa KUB No. 5665, AR Bank # 232
  MIC: 8 µg/mL (≈ 13.7 µM)
P. aeruginosa KUB No. 5666, AR Bank # 23
  MIC: 4 µg/mL (≈ 6.83 µM)
P. aeruginosa KUB No. 5667, AR Bank # 234
  MIC: 8 µg/mL (≈ 13.7 µM)
P. aeruginosa KUB No. 5668, AR Bank # 235
  MIC: 64 µg/mL (≈ 109 µM)
P. aeruginosa KUB No. 5669, AR Bank # 236
  MIC: 8 µg/mL (≈ 13.7 µM)
P. aeruginosa KUB No. 5670, AR Bank # 237
  MIC: 2 µg/mL (≈ 3.42 µM)
P. aeruginosa KUB No. 5671, AR Bank # 238
  MIC: 4 µg/mL (≈ 6.83 µM)
P. aeruginosa KUB No. 5672, AR Bank # 239
  MIC: > 64 µg/mL
P. aeruginosa KUB No. 5673, AR Bank # 240
  MIC: 64 µg/mL (≈ 109 µM)
P. aeruginosa KUB No. 5674, AR Bank # 241
  MIC: 32 µg/mL (≈ 54.6 µM)
P. aeruginosa KUB No. 5675, AR Bank # 242
  MIC: 64 µg/mL (≈ 109 µM)
P. aeruginosa KUB No. 5676, AR Bank # 243
  MIC: 32 µg/mL (≈ 54.6 µM)
P. aeruginosa KUB No. 5677, AR Bank # 244
  MIC: 8 µg/mL (≈ 13.7 µM)
P. aeruginosa KUB No. 5678, AR Bank # 245
  MIC: > 64 µg/mL
P. aeruginosa KUB No. 5679, AR Bank # 246
  MIC: > 64 µg/mL
P. aeruginosa KUB No. 5680, AR Bank # 247
  MIC: 4 µg/mL (≈ 6.83 µM)
P. aeruginosa KUB No. 5681, AR Bank # 248
  MIC: 64 µg/mL (≈ 109 µM)
P. aeruginosa KUB No. 5682, AR Bank # 249
  MIC: > 64 µg/mL
P. aeruginosa KUB No. 5684, AR Bank # 251
  MIC: 8 µg/mL (≈ 13.7 µM)
P. aeruginosa KUB No. 5685, AR Bank # 252
  MIC: 0.5 µg/mL (≈ 0.854 µM)
P. aeruginosa KUB No. 5687, AR Bank # 254
  MIC: > 64 µg/mL
P. aeruginosa KUB No. 5688, AR Bank # 255
  MIC: > 64 µg/mL
P. aeruginosa KUB No. 5689, AR Bank # 256
  MIC: 2 µg/mL (≈ 3.42 µM)
P. aeruginosa KUB No. 5690, AR Bank # 257
  MIC: 8 µg/mL (≈ 13.7 µM)
P. aeruginosa KUB No. 5691, AR Bank # 258
  MIC: 4 µg/mL (≈ 6.83 µM)
P. aeruginosa KUB No. 5692, AR Bank # 259
  MIC: 2 µg/mL (≈ 3.42 µM)
P. aeruginosa KUB No. 5693, AR Bank # 260
  MIC: 64 µg/mL (≈ 109 µM)
P. aeruginosa KUB No. 5694, AR Bank # 261
  MIC: 16 µg/mL (≈ 27.3 µM)
P. aeruginosa KUB No. 5695, AR Bank # 262
  MIC: 4 µg/mL (≈ 6.83 µM)
P. aeruginosa KUB No. 5696, AR Bank # 263
  MIC: 32 µg/mL (≈ 54.6 µM)
P. aeruginosa KUB No. 5697, AR Bank # 264
  MIC: 2 µg/mL (≈ 3.42 µM)
P. aeruginosa KUB No. 5698, AR Bank # 265
  MIC: 8 µg/mL (≈ 13.7 µM)
P. aeruginosa KUB No. 5699, AR Bank # 266
  MIC: 8 µg/mL (≈ 13.7 µM)
P. aeruginosa KUB No. 5700, AR Bank # 267
  MIC: 16 µg/mL (≈ 27.3 µM)
P. aeruginosa KUB No. 5701, AR Bank # 268
  MIC: 8 µg/mL (≈ 13.7 µM)
P. aeruginosa KUB No. 5702, AR Bank # 269
  MIC: 4 µg/mL (≈ 6.83 µM)
P. aeruginosa KUB No. 5703, AR Bank # 270
  MIC: 16 µg/mL (≈ 27.3 µM)
P. aeruginosa KUB No. 5704, AR Bank # 271
  MIC: 4 µg/mL (≈ 6.83 µM)
P. aeruginosa KUB No. 5705, AR Bank # 272
  MIC: 4 µg/mL (≈ 6.83 µM)
P. aeruginosa KUB No. 5747, AR Bank # 351
  MIC: 64 µg/mL (≈ 109 µM)
P. aeruginosa KUB No. 5748, AR Bank # 352
  MIC: 4 µg/mL (≈ 6.83 µM)
P. aeruginosa KUB No. 5749, AR Bank # 353
  MIC: 64 µg/mL (≈ 109 µM)
P. aeruginosa KUB No. 5750, AR Bank # 354
  MIC: 8 µg/mL (≈ 13.7 µM)
P. aeruginosa KUB No. 5751, AR Bank # 355
  MIC: 8 µg/mL (≈ 13.7 µM)
P. aeruginosa KUB No. 5752, AR Bank # 356
  MIC: 2 µg/mL (≈ 3.42 µM)
P. aeruginosa KUB No. 5753, AR Bank # 357
  MIC: > 64 µg/mL
P. aeruginosa KUB No. 5754, AR Bank # 358
  MIC: 4 µg/mL (≈ 6.83 µM)
P. aeruginosa KUB No. 5755, AR Bank # 359
  MIC: 4 µg/mL (≈ 6.83 µM)
P. aeruginosa KUB No. 5756, AR Bank # 360
  MIC: 4 µg/mL (≈ 6.83 µM)
P. aeruginosa KUB No. 5785, AR Bank # 439
  MIC: > 64 µg/mL
P. aeruginosa KUB No. 5786, AR Bank # 440
  MIC: 8 µg/mL (≈ 13.7 µM)
P. aeruginosa KUB No. 5787, AR Bank # 441
  MIC: 2 µg/mL (≈ 3.42 µM)
P. aeruginosa KUB No. 5788, AR Bank # 443
  MIC: 64 µg/mL (≈ 109 µM)
P. aeruginosa KUB No. 5789, AR Bank # 444
  MIC: > 64 µg/mL
P. aeruginosa KUB No. 5790, AR Bank # 445
  MIC: 64 µg/mL (≈ 109 µM)
P. aeruginosa KUB No. 5793, AR Bank # 449
  MIC: 8 µg/mL (≈ 13.7 µM)
P. aeruginosa KUB No. 5798, AR Bank # 455
  MIC: 0.25 µg/mL (≈ 0.427 µM)
P. aeruginosa KUB No. 5799, AR Bank # 456
  MIC: 8 µg/mL (≈ 13.7 µM)
P. aeruginosa KUB No. 5800, AR Bank # 457
  MIC: 2 µg/mL (≈ 3.42 µM)
P. aeruginosa KUB No. 5801, AR Bank # 458
  MIC: 16 µg/mL (≈ 27.3 µM)
P. aeruginosa KUB No. 5802, AR Bank # 459
  MIC: 8 µg/mL (≈ 13.7 µM)
P. aeruginosa KUB No. 5804, AR Bank # 862
  MIC: 4 µg/mL (≈ 6.83 µM)
P. aeruginosa KUB No. 5805, AR Bank # 863
  MIC: > 64 µg/mL
P. aeruginosa KUB No. 5806, AR Bank # 864
  MIC: 0.5 µg/mL (≈ 0.854 µM)
P. aeruginosa KUB No. 5813, AR Bank # 508
  MIC: 0.064 µg/mL (≈ 0.109 µM)
P. aeruginosa KUB No. 5814, AR Bank # 509
  MIC: > 0.064 µg/mL
P. aeruginosa KUB No. 5815, AR Bank # 510
  MIC: 0.008 µg/mL (≈ 0.0137 µM)
P. aeruginosa KUB No. 5816, AR Bank # 511
  MIC: 0.004 µg/mL (≈ 0.00683 µM)
P. aeruginosa KUB No. 5817, AR Bank # 512
  MIC: 0.004 µg/mL (≈ 0.00683 µM)
P. aeruginosa KUB No. 5818, AR Bank # 513
  MIC: 0.032 µg/mL (≈ 0.0546 µM)
P. aeruginosa KUB No. 5819, AR Bank # 514
  MIC: 0.004 µg/mL (≈ 0.00683 µM)
P. aeruginosa KUB No. 5820, AR Bank # 515
  MIC: 0.008 µg/mL (≈ 0.0137 µM)
P. aeruginosa KUB No. 5821, AR Bank # 516
  MIC: 0.002 µg/mL (≈ 0.00342 µM)
P. aeruginosa KUB No. 5823, AR Bank # 518
  MIC: 0.016 µg/mL (≈ 0.0273 µM)
P. aeruginosa KUB No. 5831, AR Bank # 526
  MIC: 0.004 µg/mL (≈ 0.00683 µM)
P. aeruginosa KUB No. 5832, AR Bank # 527
  MIC: 0.0005 µg/mL (≈ 0.000854 µM)
P. aeruginosa KUB No. 5833, AR Bank # 528
  MIC: 0.008 µg/mL (≈ 0.0137 µM)
P. aeruginosa KUB No. 5834, AR Bank # 529
  MIC: 0.004 µg/mL (≈ 0.00683 µM)
